Data published in PMC8983499 (Cancer Research, 2022).

Key:
Type in all cases: in vivo
Nephrotoxicity study = conditions: BALB/cJ mice, intravenous, 3 days after drug administration, ELISA, n = 3/group
Toxicity profile = conditions: healthy BALB/cJ mice, intravenous weekly for 3 weeks, DM1 and DM1–Bdd 0.75 mg/kg of drug content, CIS 10 mg/kg
[1] = Fluorescence imaging of Cy-peptide analogues; conditions: SHO mice, tail-vein injection 0.5 nmol, images 1 and 4 hours; in words

Compound	KIM-1 and/or NGAL in urine (Nephrotoxicity study)	serum biochemical analysis for liver injury and renal function (Toxicity profile)	hematology (blood cell counts and morphologic features) (Toxicity profile; n = 4/group)	elimination and organ uptake by fluorescence imaging [1]
COc1cc2cc(c1Cl)N(C)C(=O)C[C@H](OC(=O)[C@H](C)N(C)C(=O)CCS)[C@]1(C)O[C@H]1[C@H](C)[C@@H]1C[C@@](O)(NC(=O)O1)[C@H](OC)/C=C/C=C(\C)C2 [DM1, N2'-deacetyl-N2'-(3-mercapto-1-oxopropyl)-maytansine]	continued induction	induced hepatic and renal toxicity	reticulocytosis without apparent anemia	–
Nc1ccn([C@@H]2O[C@H](CO)[C@@H](O)C2(F)F)c(=O)n1 [GEM, gemcitabine]	continued induction	–	–	–
CO[C@@]12[C@H](COC(N)=O)C3=C(C(=O)C(C)=C(N)C3=O)N1C[C@@H]1N[C@@H]12 [MIT, mitomycin]	continued induction	–	–	–
Cyanine5.5 [free Cy]	–	–	–	mainly taken up by liver and/or other organs
